Experiment in all cases: growth of human tumour cells (NCI), 48 h
The test system of experiment [1] is CAKI-1 renal.
In experiment [2] the test system is HCC-2998 colon.
Experiment [3] relates to MDA-MB-231 breast.
The subject of experiment [4] is NCI/ADR-RES ovarian.
In experiment [5] the test system is PC-3 prostate.
In experiment [6] the test system is SK-MEL-2 melanoma.
In experiment [7] the test system is T-47D breast.
Experiment [8] deals with SR leukemia.

Structures are written as SMILES. Values joined by “and” are separate entries in the source; they are usually repeats but may differ in a detail not shown here. Equal values may be shown once.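 Results reflect a 48-hour exposure of cells in 96-well plates to compound at five concentrations. The concentration for 50% growth inhibition is given as GI50. TGI is the concentration that stops growth completely.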

Take `O=C(O)c1ccc(Oc2nccc(-c3c(-c4ccc(F)cc4)ncn3C3CCNCC3)n2)cc1`: the GI50 in experiment [1], in experiment [2], in experiment [3], in experiment [4], in experiment [5] and in experiment [6] was more than 25 µM each time. For the same molecule, in experiment [7], the GI50 is more than 25 µM. For the same molecule, the TGI in experiment [1], in experiment [2], in experiment [3], in experiment [4], in experiment [5] and in experiment [6] was more than 25 µM in each case. The TGI in experiment [7] was more than 25 µM.

For `CNC/C(Cl)=N/S(=O)(=O)c1ccc(C)cc1`, the TGI was 26.2 µM in experiment [1]; 16.2 µM in experiment [2]; 28.5 µM in experiment [3]; more than 100 µM in experiment [4]; 22.8 µM in experiment [5]; 34.4 µM in experiment [6]. In experiment [8], this molecule showed a TGI of 34.9 µM.

As to `N#CC1=C(N)Oc2c(ccc3ccccc23)C1c1ccccc1` (centres undefined), the GI50 in experiment [1] is 0.0283 µM; in experiment [2] it was 0.141 µM; in experiment [3], 0.099 µM; in experiment [4], 0.0274 µM; in experiment [5] it was 0.0454 µM; in experiment [6], 0.0517 µM. The GI50 in experiment [8] was 0.0336 µM. In addition, the TGI was found to be 12.6 µM in experiment [1]; 6.67 µM in experiment [2]; 7.5 µM in experiment [3]; 1.68 µM in experiment [4]; 16.8 µM in experiment [5]; 12.6 µM in experiment [6]. For the same molecule, the TGI in experiment [8] was 22.4 µM.

Regarding `O=C1NC(=O)C(c2ccccc2Cl)=C1Nc1cc(Cl)c(O)c(Cl)c1`, the GI50 was more than 21.5 µM in experiment [1]; more than 25 µM in experiment [2]; more than 25 µM in experiment [3]; 14.9 µM in experiment [4]; more than 23 µM in experiment [5]; 12 µM in experiment [6]. In addition, the GI50 in experiment [7] is more than 15.2 µM. The TGI in experiment [1], in experiment [2], in experiment [3], in experiment [4], in experiment [5] and in experiment [6] was more than 25 µM in each case. In experiment [7], the TGI was more than 25 µM.

For `CCC(=O)Nc1ccccc1C#C/C=C\C#Cc1ccccc1SC`, the GI50 in experiment [1] was 5.18 µM; in experiment [2] it was 5.09 µM; in experiment [3], 7.92 µM; in experiment [4] it was 5.15 µM; in experiment [6] it was 0.0742 µM; in experiment [8] it was 1.68 µM. Besides, the GI50 in experiment [7] is 8.96 µM. The TGI in experiment [1] was more than 100 µM; in experiment [2], 27.3 µM; in experiment [3], more than 100 µM; in experiment [4] it was 65.2 µM; in experiment [6] it was 3.83 µM; in experiment [8] it was more than 100 µM. In experiment [7], this molecule yielded a TGI of more than 100 µM.

In the case of `c1cc(N2CCCN(c3ccc(C4=NCCCN4)cc3)CC2)ccc1C1=NCCCN1`, the GI50 in experiment [1] is more than 100 µM; in experiment [4], more than 100 µM; in experiment [5] it was 91.9 µM; in experiment [7], more than 100 µM. Further, the TGI in experiment [1], in experiment [4], in experiment [5] and in experiment [7] was more than 100 µM throughout.

On to `CNC(=S)NC(=O)c1c(Cl)n(C(=O)OC(C)(C)C)c2ccccc12`, for which the GI50 in experiment [1] is 21.2 µM; in experiment [2] it was 27.6 µM; in experiment [3], 33.7 µM; in experiment [4] it was 47.8 µM; in experiment [5], 25.5 µM; in experiment [6], more than 100 µM. For the same molecule, in experiment [7], the GI50 is 44.1 µM. Further, the TGI is 69.9 µM in experiment [1]; more than 100 µM in experiment [2]; more than 100 µM in experiment [3]; more than 100 µM in experiment [4]; more than 100 µM in experiment [5]; more than 100 µM in experiment [6]. The molecule also had a TGI in experiment [7] of more than 100 µM.

Turning to `C=C1C(C2(C)C(OC(C)=O)CC(=O)OC(C)(COC(C)=O)C2CC(=O)OC)C(OC=O)C(OC(=O)C(O)C(C)CC)C2(C)C(c3ccoc3)CC(=O)C12O` (centres undefined), the TGI in experiment [1] was 11.7 µM; in experiment [3] it was more than 100 µM; in experiment [4], more than 100 µM; in experiment [5] it was more than 100 µM; in experiment [6], more than 100 µM; in experiment [8], more than 100 µM. The molecule further showed a TGI in experiment [7] of more than 100 µM.

`CC1=C(C(=O)Nc2ccc(Cl)c(Cl)c2)C(c2cccc(Cl)c2)NC(=O)N1` (centres undefined): the GI50 in experiment [1] was 9.42 µM; in experiment [3] it was 4.44 µM; in experiment [4], 13.3 µM; in experiment [5], more than 50 µM; in experiment [6], 9.95 µM; in experiment [8], 22.3 µM. Besides, the GI50 in experiment [7] is 19.2 µM. Moreover, the TGI in experiment [1] was 19.9 µM; in experiment [3], 11.7 µM; in experiment [4], 33.5 µM; in experiment [5] it was more than 50 µM; in experiment [6], 19.3 µM; in experiment [8], more than 50 µM. The molecule further had a TGI in experiment [7] of more than 50 µM.

`COc1cc(Nc2nc3ccccc3nc2NS(=O)(=O)c2ccc(NC(=O)c3ccc(C)c(OC)c3)cc2)cc(OC)c1`: the TGI in experiment [1] is > 100 µM and 73.8 µM and > 6.67 µM; in experiment [2], > 100 µM and 37.7 µM and > 8.5 µM; in experiment [3], 46.2 µM and > 100 µM and > 7 µM; in experiment [4] it was more than 100 µM; in experiment [5] it was > 100 µM and 74.9 µM and > 6.71 µM; in experiment [6] it was 22.6 µM and 32.8 µM and 3.83 µM. In addition, the TGI in experiment [8] is 51.2 µM and 49.1 µM and > 10 µM. Moreover, in experiment [4], the GI50 was 4.36 µM and 17.7 µM and > 3.64 µM.

In the case of `CC(=O)N1C/C(=C/c2ccc(Cl)cc2)C(=O)/C(=C/c2ccc(Cl)cc2)C1`, the GI50 in experiment [1] was 2.53 µM; in experiment [2], 0.632 µM; in experiment [3], 1.15 µM; in experiment [4], 2.56 µM; in experiment [5], 0.47 µM; in experiment [6] it was 2.19 µM. Moreover, the GI50 in experiment [7] is 1.31 µM. In addition, the TGI stood at 8.5 µM in experiment [1]; 1.45 µM in experiment [2]; 3.23 µM in experiment [3]; 12.6 µM in experiment [4]; 2.28 µM in experiment [5]; 4.56 µM in experiment [6]. This molecule had a TGI in experiment [7] of 3.24 µM.

`C=C(C)[C@@H]1CC[C@]2(C(=O)O)CC[C@]3(C)[C@H](CC[C@@H]4[C@@]5(C)CCC(NC(=O)c6cccc(OC(C)=O)c6OC(C)=O)C(C)(C)[C@@H]5CC[C@]43C)[C@@H]12` (some centres undefined): the GI50 in experiment [1] is 0.371 µM; in experiment [2], 1.57 µM; in experiment [3] it was 1.09 µM; in experiment [4] it was 0.817 µM; in experiment [6], 0.981 µM; in experiment [8] it was 0.568 µM. The GI50 in experiment [7] was 0.628 µM. The TGI in experiment [1] is 2.24 µM; in experiment [2] it was 4.51 µM; in experiment [3] it was 3.88 µM; in experiment [4], 6.43 µM; in experiment [6] it was 4.02 µM; in experiment [8] it was 3.14 µM. This molecule also came in with a TGI in experiment [7] of more than 100 µM.

For `COC(=O)CC[C@]1(C)O[C@H]2[C@H]([C@@H](C)CCCC(C)=O)OC(=O)[C@@H]2C[C@H]1O`, the GI50 is 32 µM in experiment [1]; 29.1 µM in experiment [2]; more than 100 µM in experiment [3]; more than 100 µM in experiment [4]; more than 100 µM in experiment [5]; more than 100 µM in experiment [6]. The GI50 in experiment [8] is more than 100 µM. The TGI in experiment [1], in experiment [2], in experiment [3], in experiment [4], in experiment [5] and in experiment [6] was more than 100 µM in each case. In addition, the TGI in experiment [8] is more than 100 µM.

As for `C#CC1(OC(C)=O)CCC2C3CC=C4C=C(OC(C)=O)CCC4(C)C3CCC21C` (centres undefined), the TGI in experiment [1] came to 83.2 µM; in experiment [2], 32.9 µM; in experiment [3], 58.3 µM; in experiment [4] it was 79.3 µM; in experiment [6] it was 41.1 µM; in experiment [8], 35 µM. This molecule also showed a TGI in experiment [7] of more than 100 µM.

With `O=C1c2ccccc2-c2oc(=O)c3ccccc3c21`, the TGI in experiment [1], in experiment [3], in experiment [4], in experiment [5], in experiment [6] and in experiment [7] was more than 100 µM throughout.

As for `CC(=Nc1ccccc1)C1=C(O)C(Cc2ccc(O)cc2)NC1=O` (centres undefined), the GI50 is 0.0635 µM in experiment [1]; 0.124 µM in experiment [2]; 1.06 µM in experiment [3]; 0.0572 µM in experiment [4]; 0.0538 µM in experiment [5]; 0.206 µM in experiment [6]. For the same molecule, the GI50 in experiment [8] was 0.0283 µM. Besides, the TGI in experiment [1] is more than 100 µM; in experiment [2] it was 0.641 µM; in experiment [3] it was more than 100 µM; in experiment [4], 0.793 µM; in experiment [5] it was more than 100 µM; in experiment [6], more than 100 µM.

Take `O=S(=O)(NCCCNc1nccc(-c2c(-c3ccc(F)c(O)c3)nc3sccn23)n1)c1ccc(F)cc1`: the GI50 is 3.57 µM in experiment [1]; 2.86 µM in experiment [2]; 3.44 µM in experiment [4]; 0.717 µM in experiment [6]; 2.13 µM in experiment [8]; 2.24 µM in experiment [7]. In addition, the TGI in experiment [1] was more than 100 µM; in experiment [2], 7.17 µM; in experiment [4] it was 28 µM; in experiment [6], 3.01 µM; in experiment [8], more than 100 µM; in experiment [7] it was 6.21 µM.

(Values after PubChem BioAssay (NCI).)
